For test [1], the target named is T1, human long-chain acyl-CoA dehydrogenase (LCAD) (Homo sapiens, UniProt P28330).
T1 construct: gene ACADL; 400-residue mature protein without 30-residue mitochondrial transport peptide; pET11a-LCAD in E. coli BL21(DE3); no tag mentioned; 43 kDa subunit, homotetramer; numbering of the 430-residue preprotein
T1 sequence (P28330 31-430): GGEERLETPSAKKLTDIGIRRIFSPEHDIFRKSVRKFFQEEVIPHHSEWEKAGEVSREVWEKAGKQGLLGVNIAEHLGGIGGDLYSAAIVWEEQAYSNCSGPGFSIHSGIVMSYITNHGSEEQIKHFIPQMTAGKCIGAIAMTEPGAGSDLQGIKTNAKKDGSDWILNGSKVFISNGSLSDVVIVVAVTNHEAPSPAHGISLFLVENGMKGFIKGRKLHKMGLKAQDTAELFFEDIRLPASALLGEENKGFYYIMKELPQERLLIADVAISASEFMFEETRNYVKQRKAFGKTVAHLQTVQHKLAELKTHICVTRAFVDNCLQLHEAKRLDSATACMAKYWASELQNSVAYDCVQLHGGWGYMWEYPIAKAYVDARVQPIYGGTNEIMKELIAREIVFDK
Nature of the test: X-ray crystallography, […] Å, soaked crystal. Format: binding. Particulars: active site; inhibitor; bound in monomers A and B only; 0.1% beta-octyl glucoside, pH 8.2-8.5.

The target in test [2] is T1, human long-chain acyl-CoA dehydrogenase (LCAD). Briefly: X-ray crystallography, […] Å. Format: binding. Particulars: noncovalent, one FAD per subunit, at dimer interface; no substrate ligand; pH 8.2-8.5.
Test [3] concerns the target T2, human long-chain acyl-CoA dehydrogenase (LCAD) (Homo sapiens, UniProt P28330, E291Q).
T2 construct: gene ACADL; 400-residue mature protein without 30-residue mitochondrial transport peptide; pET11a-LCAD in E. coli BL21(DE3); no tag mentioned; 43 kDa subunit, homotetramer; numbering of the 430-residue preprotein
T2 sequence (P28330 31-430 E291Q): T1 sequence (P28330 31-430) with E261Q
Nature of the test: X-ray crystallography, […] Å, co-crystallized with C12-CoA. Format: binding. The settings on record: noncovalent, one FAD per subunit; pH 8.2-8.5.

The target in test [4] is T1, human long-chain acyl-CoA dehydrogenase (LCAD). Briefly: ferricenium reduction assay, spectrophotometric. The settings on record: ferricenium as terminal electron acceptor. Format: biochemical.

Each structure is given as a SMILES string. Changes are numbered by the printed parent chain.

From publication PMC11153573, “Structural basis for expanded substrate specificities of human long chain acyl-CoA dehydrogenase and related acyl-CoA dehydrogenases” (Scientific Reports, 2024) come the findings set out here.

In the case of `CC(=O)CC(=O)SCCNC(=O)CCNC(=O)[C@H](O)C(C)(C)COP(=O)(O)OP(=O)(O)OC[C@H]1O[C@@H](n2cnc3c(N)ncnc32)[C@H](O)[C@@H]1OP(=O)(O)O` [acetoacetyl-CoA], the “X-ray crystallography, 2.8 Å, soaked crystal” value in test [1] is on record as “the inhibitor acetoacetyl-CoA can be soaked into the crystals”. `Cc1cc2nc3c(=O)[nH]c(=O)nc-3n(C[C@H](O)[C@H](O)[C@H](O)COP(=O)(O)OP(=O)(O)OC[C@H]3O[C@@H](n4cnc5c(N)ncnc54)[C@H](O)[C@@H]3O)c2cc1C` [FAD]: the “X-ray crystallography, 2.5 Å” value in test [2] is “The strong electron density map in the FAD position indicated the correctness of the solution”. Besides, the “X-ray crystallography, 2.0 Å, co-crystallized with C12-CoA” value in test [3] is “FAD, Gly412, and the catalytic residue (E291Q) are shown as sticks”. As for `CCCCCCCCCCCC(=O)SCCNC(=O)CCNC(=O)[C@H](O)C(C)(C)COP(=O)(O)OP(=O)(O)OC[C@H]1O[C@@H](n2cnc3c(N)ncnc32)[C@H](O)[C@@H]1OP(=O)(O)O` [C12-CoA], the “ferricenium reduction assay, spectrophotometric” value in test [4] is given as “The reaction was initiated by addition of C12-CoA substrate”.
